Patent US20080009418A1, “Selective Inhibitors” (Alchemia LTD., priority 2004, published 2008)

How the values were obtained:
Mouse urotensin (mUR2) = target: T1, Mouse urotensin (mUR2) (Mus musculus, UniProt Q8VIH9); assay: Radioligand binding, mouse urotensin mUR2 membranes, FlashPlate, [125I]-Urotensin II; details: compound at 10 μM; for A11 radioligand binding inhibition: mouse urotensin mUR2 membranes
T1 construct: purchased Perkin Elmer Biosignal
T1 sequence (Q8VIH9 1-385): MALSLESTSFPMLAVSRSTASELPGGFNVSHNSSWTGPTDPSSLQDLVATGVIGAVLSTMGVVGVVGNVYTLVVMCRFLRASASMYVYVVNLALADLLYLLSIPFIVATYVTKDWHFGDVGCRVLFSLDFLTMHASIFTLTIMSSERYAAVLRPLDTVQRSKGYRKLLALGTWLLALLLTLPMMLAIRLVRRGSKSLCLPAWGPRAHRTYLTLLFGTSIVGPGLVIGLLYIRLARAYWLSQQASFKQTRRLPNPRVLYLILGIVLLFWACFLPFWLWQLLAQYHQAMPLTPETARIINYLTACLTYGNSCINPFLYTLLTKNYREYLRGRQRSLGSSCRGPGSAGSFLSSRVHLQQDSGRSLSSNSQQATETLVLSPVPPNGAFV
Summary of the method: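 Cloned mouse urotensin (mUR2) receptor membranes from Perkin Elmer Biosignal were immobilized in FlashPlate microplates using a proprietary coating. Each well got 19.5 μl buffer, then 0.5 μl of DMSO, reference ligand, or compound. Adding 5 μl of [125I]-Urotensin II, diluted to 5× final concentration in binding buffer, started binding. Plates were sealed with TopSeal-A and incubated 1 hour at room temperature in the dark. Wells were counted for 30 seconds each on a TopCount after a 60-second delay, and percentage inhibition was calculated.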

Human melanocortin (MC5) = target: T2, Human melanocortin (MC5) (Homo sapiens, UniProt P33032); assay: Radioligand binding, human melanocortin MC5 membranes, FlashPlate, [125I]-NDP-αMSH; details: compound at 10 μM; for A5 radioligand binding inhibition: human melanocortin MC5 membranes
T2 construct: purchased Perkin Elmer Biosignal
Summary of the method: (§1)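 Cloned human receptor membranes were coated onto FlashPlate wells and incubated with radioligand and compound (added from a 0.5 mM DMSO daughter plate) for 1 hour at room temperature in the dark. Scintillation counting gave percent inhibition, with DMSO defining total and reference ligand defining non-specific binding.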

[1] = target: T3, Human neuropeptide Y (NPY-Y1) (Homo sapiens, UniProt P25929); assay: Radioligand binding, human neuropeptide Y NPY-Y1 membranes, FlashPlate, [125I]-PYY; details: compound at 10 μM
T3 construct: purchased Perkin Elmer Biosignal
T3 sequence (P25929 1-384): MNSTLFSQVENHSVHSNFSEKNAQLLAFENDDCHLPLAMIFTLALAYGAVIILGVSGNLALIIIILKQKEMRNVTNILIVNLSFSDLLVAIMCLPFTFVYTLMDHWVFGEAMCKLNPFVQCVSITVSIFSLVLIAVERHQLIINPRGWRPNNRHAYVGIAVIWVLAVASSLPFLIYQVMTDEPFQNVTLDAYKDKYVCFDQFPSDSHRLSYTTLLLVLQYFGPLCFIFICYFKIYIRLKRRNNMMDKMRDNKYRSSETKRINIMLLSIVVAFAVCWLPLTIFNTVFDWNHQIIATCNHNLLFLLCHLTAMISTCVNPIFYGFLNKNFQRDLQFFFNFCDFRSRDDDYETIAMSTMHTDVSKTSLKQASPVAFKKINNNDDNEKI
Summary of the method: as §1

Human κ-Opioid (KOP) = target: T4, Human κ-Opioid (KOP) (Homo sapiens, UniProt P41145); assay: Radioligand binding, human κ-opioid (KOP) membranes, filtration, [3H]-Diprenorphine; details: compound at 10 μM; for A2 radioligand binding inhibition: human κ-opioid (KOP) membranes
T4 construct: purchased Perkin Elmer Biosignal
Summary of the method: (§2)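 Filtration binding on cloned human receptor membranes (1 Unit/well), [125I]-Substance P for NK1 and [3H]-Diprenorphine for KOP, 1 h at room temperature. Filters PEI-presoaked, washed with cold 50 mM Tris-HCl pH 7.4, counted by scintillation; percent inhibition calculated, reference ligand defining non-specific binding.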

[2] = target: T5, Human melanin-concentrating hormone (MCH1) (Homo sapiens, UniProt Q99705); assay: Radioligand binding, human melanin-concentrating hormone MCH1 membranes, FlashPlate, [125I]-S36057; details: compound at 10 μM; for A6 radioligand binding inhibition: human MCH1 membranes
T5 construct: purchased Perkin Elmer Biosignal
Summary of the method: as §1

Human Melanocortin (MC3) = target: T6, Human Melanocortin (MC3) (Homo sapiens, UniProt P41968); assay: Radioligand binding, human melanocortin MC3 membranes, FlashPlate, [125I]-NDP-αMSH; details: compound at 10 μM; for A3 radioligand binding inhibition: human melanocortin MC3 membranes
T6 construct: purchased Perkin Elmer Biosignal
Summary of the method: as §1

Human opioid (ORL1) = target: T7, Human opioid (ORL1) (Homo sapiens, UniProt P41146); assay: Radioligand binding, human opioid ORL1 membranes, FlashPlate, [125I]-Nociceptin; details: compound at 10 μM
T7 construct: purchased Perkin Elmer Biosignal
Summary of the method: as §1

Human neurokinin (NK1) = target: T8, Human neurokinin (NK1) (Homo sapiens, UniProt P25103); assay: Radioligand binding, human neurokinin NK1 membranes, filtration, [125I]-Substance P; details: compound at 10 μM; for A8 radioligand binding inhibition: human neurokinin NK1 membranes
T8 construct: purchased Perkin Elmer Biosignal
Summary of the method: as §2

Human μ-opioid (MOP) = target: T9, Human μ-opioid (MOP) (Homo sapiens, UniProt P35372); assay: Radioligand binding, human μ-opioid (MOP) membranes, FlashPlate, [3H]-Naloxone; details: compound at 10 μM; for A7 radioligand binding inhibition: human μ-opioid (MOP) membranes
T9 construct: purchased Perkin Elmer Biosignal
Summary of the method: as §1

Human δ-opioid (DOP) = target: T10, Human δ-opioid (DOP) (Homo sapiens, UniProt P41143); assay: Radioligand binding, human δ-opioid (DOP) membranes, FlashPlate, [3H]-Bremazocine; details: compound at 10 μM; for A1 radioligand binding inhibition: human δ-opioid (DOP) membranes
T10 construct: purchased Perkin Elmer Biosignal
Summary of the method: as §1

Human Melanocortin (MC4) = target: T11, Human Melanocortin (MC4) (Homo sapiens, UniProt P32245); assay: Radioligand binding, human melanocortin MC4 membranes, FlashPlate, [125I]-NDP-αMSH; details: compound at 10 μM; for A4 radioligand binding inhibition: human melanocortin MC4 membranes
T11 construct: purchased Perkin Elmer Biosignal
Summary of the method: as §1

T4 sequence (P41145 whole entry): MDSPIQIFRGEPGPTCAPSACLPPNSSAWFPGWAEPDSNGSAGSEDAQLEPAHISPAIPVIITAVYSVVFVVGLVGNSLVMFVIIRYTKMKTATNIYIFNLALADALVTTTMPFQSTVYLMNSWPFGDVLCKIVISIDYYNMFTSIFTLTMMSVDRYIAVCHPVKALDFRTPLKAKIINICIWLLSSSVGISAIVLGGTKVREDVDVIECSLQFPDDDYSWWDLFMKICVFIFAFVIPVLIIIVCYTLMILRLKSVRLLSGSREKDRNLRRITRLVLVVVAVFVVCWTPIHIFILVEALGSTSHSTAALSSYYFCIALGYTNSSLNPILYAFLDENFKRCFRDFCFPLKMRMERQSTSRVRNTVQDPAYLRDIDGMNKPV
T9 sequence (P35372 whole entry): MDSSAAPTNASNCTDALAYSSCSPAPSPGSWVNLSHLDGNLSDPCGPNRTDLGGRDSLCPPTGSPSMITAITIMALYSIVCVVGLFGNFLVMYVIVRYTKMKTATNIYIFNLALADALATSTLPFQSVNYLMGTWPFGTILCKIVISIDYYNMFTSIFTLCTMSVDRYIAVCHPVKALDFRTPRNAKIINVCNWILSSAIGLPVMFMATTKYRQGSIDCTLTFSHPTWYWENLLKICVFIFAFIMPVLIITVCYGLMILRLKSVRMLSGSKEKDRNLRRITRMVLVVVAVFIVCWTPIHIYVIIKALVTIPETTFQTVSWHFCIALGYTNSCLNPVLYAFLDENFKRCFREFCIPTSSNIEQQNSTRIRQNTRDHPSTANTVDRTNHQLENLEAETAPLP
T10 sequence (P41143 whole entry): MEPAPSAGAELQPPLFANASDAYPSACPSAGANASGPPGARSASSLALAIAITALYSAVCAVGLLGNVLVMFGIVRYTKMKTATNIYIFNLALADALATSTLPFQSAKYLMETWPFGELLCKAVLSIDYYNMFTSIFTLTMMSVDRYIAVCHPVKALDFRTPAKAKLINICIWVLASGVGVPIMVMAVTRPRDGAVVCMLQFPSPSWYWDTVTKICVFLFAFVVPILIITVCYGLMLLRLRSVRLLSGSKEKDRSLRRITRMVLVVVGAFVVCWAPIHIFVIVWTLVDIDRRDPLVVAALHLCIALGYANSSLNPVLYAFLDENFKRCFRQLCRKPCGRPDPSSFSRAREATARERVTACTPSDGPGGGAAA
T8 sequence (P25103 whole entry): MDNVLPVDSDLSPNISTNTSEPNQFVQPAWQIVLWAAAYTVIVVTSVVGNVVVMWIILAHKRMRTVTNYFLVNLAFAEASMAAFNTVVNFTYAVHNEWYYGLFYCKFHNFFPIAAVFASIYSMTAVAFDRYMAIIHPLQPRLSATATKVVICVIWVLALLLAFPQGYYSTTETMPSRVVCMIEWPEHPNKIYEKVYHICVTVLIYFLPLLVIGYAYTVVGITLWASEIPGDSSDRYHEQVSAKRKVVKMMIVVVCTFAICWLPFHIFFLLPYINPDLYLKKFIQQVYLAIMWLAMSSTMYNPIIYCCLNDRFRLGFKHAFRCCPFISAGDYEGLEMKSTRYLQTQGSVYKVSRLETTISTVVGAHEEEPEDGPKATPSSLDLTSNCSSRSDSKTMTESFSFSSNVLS
T6 sequence (P41968 whole entry): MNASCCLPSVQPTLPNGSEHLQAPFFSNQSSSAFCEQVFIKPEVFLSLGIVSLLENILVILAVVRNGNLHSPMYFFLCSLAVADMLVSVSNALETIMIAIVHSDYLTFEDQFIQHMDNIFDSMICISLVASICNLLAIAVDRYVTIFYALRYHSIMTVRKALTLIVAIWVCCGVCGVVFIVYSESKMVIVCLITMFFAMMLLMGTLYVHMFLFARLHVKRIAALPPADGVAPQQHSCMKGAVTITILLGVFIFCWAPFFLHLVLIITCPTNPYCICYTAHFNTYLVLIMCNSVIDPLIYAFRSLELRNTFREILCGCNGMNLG
T7 sequence (P41146 whole entry): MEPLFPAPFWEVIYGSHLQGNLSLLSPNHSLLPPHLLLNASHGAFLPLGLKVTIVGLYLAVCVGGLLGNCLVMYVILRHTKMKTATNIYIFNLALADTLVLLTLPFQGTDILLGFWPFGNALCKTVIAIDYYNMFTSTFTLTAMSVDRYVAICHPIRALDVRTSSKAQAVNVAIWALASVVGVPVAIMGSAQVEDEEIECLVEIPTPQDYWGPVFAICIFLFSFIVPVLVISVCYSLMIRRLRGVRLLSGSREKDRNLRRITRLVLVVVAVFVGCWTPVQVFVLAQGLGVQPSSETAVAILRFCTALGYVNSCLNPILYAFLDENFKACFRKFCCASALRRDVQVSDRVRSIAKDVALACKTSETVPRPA
T11 sequence (P32245 whole entry): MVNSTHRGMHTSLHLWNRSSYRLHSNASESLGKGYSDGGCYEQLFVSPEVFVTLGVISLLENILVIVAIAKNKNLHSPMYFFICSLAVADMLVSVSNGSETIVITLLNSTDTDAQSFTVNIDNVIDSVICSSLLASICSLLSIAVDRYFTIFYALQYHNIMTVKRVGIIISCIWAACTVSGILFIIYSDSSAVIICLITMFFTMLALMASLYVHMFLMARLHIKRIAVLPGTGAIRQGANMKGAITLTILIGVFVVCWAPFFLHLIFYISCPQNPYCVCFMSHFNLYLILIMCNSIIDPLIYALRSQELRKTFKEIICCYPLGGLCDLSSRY
T5 sequence (Q99705 whole entry): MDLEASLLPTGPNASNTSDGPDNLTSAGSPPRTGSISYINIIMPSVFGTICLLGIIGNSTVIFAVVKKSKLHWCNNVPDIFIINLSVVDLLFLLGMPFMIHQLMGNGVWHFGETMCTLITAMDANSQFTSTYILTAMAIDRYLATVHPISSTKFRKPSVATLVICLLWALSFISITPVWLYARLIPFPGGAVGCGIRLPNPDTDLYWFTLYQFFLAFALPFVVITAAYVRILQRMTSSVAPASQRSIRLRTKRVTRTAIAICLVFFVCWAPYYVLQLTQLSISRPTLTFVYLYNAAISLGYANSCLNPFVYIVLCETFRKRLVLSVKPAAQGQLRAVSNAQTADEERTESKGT
T2 sequence (P33032 whole entry): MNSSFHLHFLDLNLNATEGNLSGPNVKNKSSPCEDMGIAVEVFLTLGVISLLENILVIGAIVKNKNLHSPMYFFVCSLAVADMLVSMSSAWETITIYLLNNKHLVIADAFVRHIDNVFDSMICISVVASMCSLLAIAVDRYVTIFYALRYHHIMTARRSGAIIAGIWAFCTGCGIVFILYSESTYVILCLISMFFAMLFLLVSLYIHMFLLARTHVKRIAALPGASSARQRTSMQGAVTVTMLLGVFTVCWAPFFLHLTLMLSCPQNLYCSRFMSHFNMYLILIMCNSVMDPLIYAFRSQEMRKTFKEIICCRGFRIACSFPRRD

## NCCCC(=O)NC1C(OCc2ccc3ccccc3c2)OC(COCc2ccc(Cl)cc2)C(O)C1OCc1ccc2ccccc2c1 (stereo not shown) [compound 395]
Mouse urotensin (mUR2); [125I]-Urotensin II, mouse mUR2 membranes
  A11: inhibition of radioligand binding: − (“−” indicates less than 50% inhibition at 10 μM)
Human melanocortin (MC5); [125I]-NDP-αMSH, human MC5 membranes
  A5: inhibition of radioligand binding: + (“+” indicates greater than 50% inhibition at 10 μM)
[1]; [125I]-PYY, human NPY-Y1 membranes
  A9: inhibition of radioligand binding: − (“−” indicates less than 50% inhibition at 10 μM)
Human κ-Opioid (KOP); [3H]-Diprenorphine, human KOP membranes, 10 µM
  A2: inhibition of radioligand binding: − (“−” indicates less than 50% inhibition at 10 μM)
[2]; [125I]-S36057, human MCH1 membranes, 10 µM
  A6: inhibition of radioligand binding: − (“−” indicates less than 50% inhibition at 10 μM)
Human Melanocortin (MC3); [125I]-NDP-αMSH, human MC3 membranes
  A3: inhibition of radioligand binding: + (“+” indicates greater than 50% inhibition at 10 μM)
Human opioid (ORL1); [125I]-Nociceptin, human ORL1 membranes, 10 µM
  A10: inhibition of radioligand binding: + (“+” indicates greater than 50% inhibition at 10 μM)
Human neurokinin (NK1); [125I]-Substance P, human NK1 membranes
  A8: inhibition of radioligand binding: + (“+” indicates greater than 50% inhibition at 10 μM)
Human μ-opioid (MOP); [3H]-Naloxone, human MOP membranes
  A7: inhibition of radioligand binding: − (“−” indicates less than 50% inhibition at 10 μM)
Human δ-opioid (DOP); [3H]-Bremazocine, human DOP membranes
  A1: inhibition of radioligand binding: − (“−” indicates less than 50% inhibition at 10 μM)
Human Melanocortin (MC4); [125I]-NDP-αMSH, human MC4 membranes
  A4: inhibition of radioligand binding: + (“+” indicates greater than 50% inhibition at 10 μM)

## CO[C@H]1[C@H](O)[C@@H](COCc2ccc3ccccc3c2)OC(OCc2ccc3ccccc3c2)[C@@H]1NC(=O)CCNC(=N)N (stereo partly shown) [compound 71]
Mouse urotensin (mUR2)
  A11 radioligand binding inhibition: − (“−” indicates less than 50% inhibition at 10 μM)
Human melanocortin (MC5)
  A5 radioligand binding inhibition: + (“+” indicates greater than 50% inhibition at 10 μM)
[1]; human NPY-Y1 membranes
  A9 radioligand binding inhibition: − (“−” indicates less than 50% inhibition at 10 μM)
Human κ-Opioid (KOP)
  A2 radioligand binding inhibition: + (“+” indicates greater than 50% inhibition at 10 μM)
[2]
  A6 radioligand binding inhibition: + (“+” indicates greater than 50% inhibition at 10 μM)
Human Melanocortin (MC3)
  A3 radioligand binding inhibition: + (“+” indicates greater than 50% inhibition at 10 μM)
Human opioid (ORL1); human ORL1 membranes
  A10 radioligand binding inhibition: + (“+” indicates greater than 50% inhibition at 10 μM)
Human neurokinin (NK1)
  A8 radioligand binding inhibition: + (“+” indicates greater than 50% inhibition at 10 μM)
Human μ-opioid (MOP)
  A7 radioligand binding inhibition: + (“+” indicates greater than 50% inhibition at 10 μM)
Human δ-opioid (DOP)
  A1 radioligand binding inhibition: − (“−” indicates less than 50% inhibition at 10 μM)
Human Melanocortin (MC4)
  A4 radioligand binding inhibition: + (“+” indicates greater than 50% inhibition at 10 μM)

## CO[C@H]1[C@H](O)[C@@H](COCc2cccc(O)c2)OC(OCc2ccc(Cl)cc2)[C@@H]1NC(=O)CNC(=N)N (stereo partly shown) [compound 155]
Mouse urotensin (mUR2); [125I]-Urotensin II
  A11 radioligand binding, percentage inhibition: − (“−” indicates less than 50% inhibition at 10 μM)
Human melanocortin (MC5); [125I]-NDP-αMSH
  A5 radioligand binding, percentage inhibition: + (“+” indicates greater than 50% inhibition at 10 μM)
[1]; [125I]-PYY
  A9 radioligand binding, percentage inhibition: − (“−” indicates less than 50% inhibition at 10 μM)
Human κ-Opioid (KOP); [3H]-Diprenorphine
  A2 radioligand binding, percentage inhibition: − (“−” indicates less than 50% inhibition at 10 μM)
[2]; [125I]-S36057
  A6 radioligand binding, percentage inhibition: − (“−” indicates less than 50% inhibition at 10 μM)
Human Melanocortin (MC3); [125I]-NDP-αMSH
  A3 radioligand binding, percentage inhibition: − (“−” indicates less than 50% inhibition at 10 μM)
Human opioid (ORL1); [125I]-Nociceptin
  A10 radioligand binding, percentage inhibition: − (“−” indicates less than 50% inhibition at 10 μM)
Human neurokinin (NK1); [125I]-Substance P
  A8 radioligand binding, percentage inhibition: − (“−” indicates less than 50% inhibition at 10 μM)
Human μ-opioid (MOP); [3H]-Naloxone
  A7 radioligand binding, percentage inhibition: − (“−” indicates less than 50% inhibition at 10 μM)
Human δ-opioid (DOP); [3H]-Bremazocine
  A1 radioligand binding, percentage inhibition: − (“−” indicates less than 50% inhibition at 10 μM)
Human Melanocortin (MC4); [125I]-NDP-αMSH
  A4 radioligand binding, percentage inhibition: − (“−” indicates less than 50% inhibition at 10 μM)

## COC[C@H]1OC(OCc2ccc(-c3ccccc3)cc2)[C@H](NC(=O)CNC(=N)N)[C@@H](OCc2ccc(Cl)cc2)[C@@H]1O (stereo partly shown) [compound 10]
Mouse urotensin (mUR2)
  A11 radioligand binding inhibition: − (“−” indicates less than 50% inhibition at 10 μM)
Human melanocortin (MC5)
  A5 radioligand binding inhibition: + (“+” indicates greater than 50% inhibition at 10 μM)
[1]; human NPY-Y1 membranes
  A9 radioligand binding inhibition: − (“−” indicates less than 50% inhibition at 10 μM)
Human κ-Opioid (KOP)
  A2 radioligand binding inhibition: − (“−” indicates less than 50% inhibition at 10 μM)
[2]
  A6 radioligand binding inhibition: + (“+” indicates greater than 50% inhibition at 10 μM)
Human Melanocortin (MC3)
  A3 radioligand binding inhibition: − (“−” indicates less than 50% inhibition at 10 μM)
Human opioid (ORL1); human ORL1 membranes
  A10 radioligand binding inhibition: − (“−” indicates less than 50% inhibition at 10 μM)
Human neurokinin (NK1)
  A8 radioligand binding inhibition: + (“+” indicates greater than 50% inhibition at 10 μM)
Human μ-opioid (MOP)
  A7 radioligand binding inhibition: − (“−” indicates less than 50% inhibition at 10 μM)
Human δ-opioid (DOP)
  A1 radioligand binding inhibition: − (“−” indicates less than 50% inhibition at 10 μM)
Human Melanocortin (MC4)
  A4 radioligand binding inhibition: − (“−” indicates less than 50% inhibition at 10 μM)

## NCCC(=O)NC1C(OCc2ccccc2)OC(COCc2ccc3ccccc3c2)C(O)C1OCc1ccccc1 (stereo not shown) [compound 369]
Mouse urotensin (mUR2); [125I]-Urotensin II
  A11: inhibition of radioligand binding, mouse urotensin (mUR2): − (“−” indicates less than 50% inhibition at 10 μM)
Human melanocortin (MC5); [125I]-NDP-αMSH
  A5: inhibition of radioligand binding, human melanocortin (MC5): − (“−” indicates less than 50% inhibition at 10 μM)
[1]; [125I]-PYY
  A9: inhibition of radioligand binding, human neuropeptide Y (NPY-Y1): − (“−” indicates less than 50% inhibition at 10 μM)
Human κ-Opioid (KOP); [3H]-Diprenorphine
  A2: inhibition of radioligand binding, human κ-opioid (KOP): − (“−” indicates less than 50% inhibition at 10 μM)
[2]; [125I]-S36057
  A6: inhibition of radioligand binding, human melanin-concentrating hormone (MCH1): − (“−” indicates less than 50% inhibition at 10 μM)
Human Melanocortin (MC3); [125I]-NDP-αMSH
  A3: inhibition of radioligand binding, human melanocortin (MC3): − (“−” indicates less than 50% inhibition at 10 μM)
Human opioid (ORL1); [125I]-Nociceptin
  A10: inhibition of radioligand binding, human opioid (ORL1): − (“−” indicates less than 50% inhibition at 10 μM)
Human neurokinin (NK1); [125I]-Substance P
  A8: inhibition of radioligand binding, human neurokinin (NK1): + (“+” indicates greater than 50% inhibition at 10 μM)
Human μ-opioid (MOP); [3H]-Naloxone
  A7: inhibition of radioligand binding, human μ-opioid (MOP): − (“−” indicates less than 50% inhibition at 10 μM)
Human δ-opioid (DOP); [3H]-Bremazocine
  A1: inhibition of radioligand binding, human δ-opioid (DOP): − (“−” indicates less than 50% inhibition at 10 μM)
Human Melanocortin (MC4); [125I]-NDP-αMSH
  A4: inhibition of radioligand binding, human melanocortin (MC4): + (“+” indicates greater than 50% inhibition at 10 μM)
